Source: the NIST ThermoML archive (doi:10.1021/je700521t)
± gives the expanded uncertainty stated by the source.

Assay: xn = mol fraction of the nth substance listed
Conditions: 101 kPa, Liquid

CCCCn1cc[n+](C)c1.[O-][Cl+3]([O-])([O-])[O-] [1-butyl-3-methylimidazolium perchlorate] + CCO
mass density [kg/m3], Vibrating tube method
Conditions | x2 = 0.1 | x2 = 0.165 | x2 = 0.291 | x2 = 0.401 | x2 = 0.479 | x2 = 0.592 | x2 = 0.637 | x2 = 0.79 | x2 = 0.86
283.15 K | 1249.3 ± 7.2 | 1239.4 ± 6.2 | 1216.6 ± 4.7 | 1192 ± 3.5 | 1173.6 ± 2.8 | – | – | – | –
288.15 K | 1245.7 ± 7.1 | 1235.7 ± 6.2 | 1212.8 ± 4.6 | 1188.3 ± 3.5 | 1169.8 ± 2.8 | – | – | – | –
293.15 K | 1242.1 ± 7.1 | 1231.9 ± 6.2 | 1208.9 ± 4.6 | 1184.6 ± 3.5 | 1166.1 ± 2.8 | 1129.6 ± 1.9 | 1110.4 ± 1.6 | 1022.6 ± 0.8 | 960.5 ± 0.5
298.15 K | 1238.6 ± 7 | 1228 ± 6.1 | 1205 ± 4.6 | 1180.9 ± 3.4 | 1162.2 ± 2.7 | 1125.8 ± 1.9 | 1104.6 ± 1.6 | 1018.7 ± 0.8 | 956.7 ± 0.5
303.15 K | 1235.1 ± 7 | 1224.1 ± 6.1 | 1199.8 ± 4.5 | 1177.2 ± 3.4 | 1158.3 ± 2.7 | 1122 ± 1.9 | 1102.7 ± 1.6 | 1014.8 ± 0.8 | 952.7 ± 0.5
308.15 K | 1231.7 ± 7 | 1220.3 ± 6.1 | 1195.8 ± 4.5 | 1173.6 ± 3.4 | – | 1117.5 ± 1.9 | 1100.6 ± 1.6 | 1011 ± 1 | 948.7 ± 0.5
313.15 K | 1228.2 ± 6.9 | 1216.2 ± 6 | 1193.1 ± 4.5 | 1169.9 ± 3.4 | – | 1114.8 ± 1.8 | 1096.7 ± 1.6 | 1007 ± 1 | 944.6 ± 0.5
318.15 K | 1224.7 ± 6.9 | 1211.2 ± 6 | 1188.9 ± 4.5 | – | – | – | – | – | –
323.15 K | 1221.3 ± 6.8 | 1207.2 ± 5.9 | 1184.7 ± 4.4 | – | – | – | – | – | –
328.15 K | 1217.8 ± 6.8 | 1201 ± 5.9 | 1180.1 ± 4.4 | – | – | – | – | – | –
333.15 K | 1214.4 ± 6.8 | 1198.7 ± 5.8 | 1175.2 ± 4.4 | – | – | – | – | – | –
338.15 K | 1211 ± 6.7 | 1195.4 ± 5.8 | 1169.3 ± 4.3 | – | – | – | – | – | –
343.15 K | 1207.5 ± 6.7 | 1190.3 ± 5.8 | 1159.4 ± 4.2 | – | – | – | – | – | –

viscosity [mPa·s]
Conditions | x2 = 0.1 | x2 = 0.165 | x2 = 0.291 | x2 = 0.401 | x2 = 0.479 | x2 = 0.592 | x2 = 0.637 | x2 = 0.79 | x2 = 0.86
283.15 K | 255.52 ± 29 | 181.83 ± 16 | 87.42 ± 5.5 | 50.26 ± 4.1 | 35.48 ± 4.1 | – | – | – | –
288.15 K | 188.52 ± 18 | 136.86 ± 9.9 | 68.04 ± 4.5 | 40.89 ± 4.1 | 29.17 ± 4 | – | – | – | –
293.15 K | 142.2 ± 11 | 105.92 ± 6.8 | 54.9 ± 4.2 | 33.49 ± 4.1 | 24.41 ± 4 | 12.98 ± 4 | 11.66 ± 4 | 5.38 | 4.96
298.15 K | 109.99 ± 7.2 | 83.35 ± 5.2 | 44.84 ± 4.2 | 27.92 ± 4 | 20.67 ± 4 | 11.13 ± 4 | 10.06 ± 4 | 4.62 | 4.22
303.15 K | 86.43 ± 5.4 | 66.48 ± 4.5 | 36.75 ± 4.1 | 23.38 ± 4 | 17.56 ± 4 | 9.6 ± 4 | 8.71 ± 4 | 4.03 | 3.59
308.15 K | 69.74 ± 4.6 | 54.25 ± 4.2 | 30.63 ± 4.1 | 20.06 ± 4 | – | 8.48 ± 4 | 7.52 | 3.74 | 3.16
313.15 K | 56.98 ± 4.3 | 44.76 ± 4.2 | 26.13 ± 4 | 17.38 ± 4 | – | 7.43 | 6.66 | 3.46 | 2.8
318.15 K | 46.98 ± 4.2 | 37.2 ± 4.1 | 22.14 ± 4 | – | – | – | – | – | –
323.15 K | 39.45 ± 4.2 | 31.56 ± 4.1 | 19.51 ± 4 | – | – | – | – | – | –
328.15 K | 33.69 ± 4.1 | 27.02 ± 4.1 | 17.16 ± 4 | – | – | – | – | – | –
333.15 K | 28.86 ± 4.1 | 23.5 ± 4 | 15.43 ± 4 | – | – | – | – | – | –
338.15 K | 24.94 ± 4.1 | 20.45 ± 4 | 13.79 ± 4 | – | – | – | – | – | –
343.15 K | 21.69 ± 4 | 18.12 ± 4 | – | – | – | – | – | – | –

CCCCCCCC[n+]1ccn(C)c1.F[B-](F)(F)F [1-methyl-3-octylimidazolium tetrafluoroborate] + CCO
Conditions | mass density [kg/m3] | viscosity [mPa·s]
283.15 K, x2 = 0.081 | 1122.9 ± 1.6 | 718.47 ± 130
283.15 K, x2 = 0.161 | 1118 ± 1.5 | 492.73 ± 76
283.15 K, x2 = 0.315 | 1098.7 ± 1.2 | 167.49 ± 15
283.15 K, x2 = 0.511 | 1064.7 ± 1 | 51.57 ± 4.2
283.15 K, x2 = 0.612 | 1039.7 ± 0.8 | 27.12 ± 4
283.15 K, x2 = 0.753 | 991.3 ± 0.6 | 12.45 ± 4
288.15 K, x2 = 0.081 | 1119.4 ± 1.6 | 507.18 ± 80
288.15 K, x2 = 0.161 | 1114.5 ± 1.5 | 354.89 ± 47
288.15 K, x2 = 0.315 | 1095.2 ± 1.2 | 127.69 ± 8.6
288.15 K, x2 = 0.511 | 1061.3 ± 0.9 | 41.43 ± 4.1
288.15 K, x2 = 0.612 | 1036 ± 0.8 | 22.05 ± 4
288.15 K, x2 = 0.753 | 987.5 ± 0.6 | 10.36 ± 4
293.15 K, x2 = 0.081 | 1115.9 ± 1.5 | 366.59 ± 49
293.15 K, x2 = 0.161 | 1111 ± 1.4 | 261.54 ± 29
293.15 K, x2 = 0.315 | 1091.8 ± 1.2 | 98.92 ± 5.9
293.15 K, x2 = 0.511 | 1057.8 ± 0.9 | 35.28 ± 4
293.15 K, x2 = 0.612 | 1032.2 ± 0.8 | 18.24 ± 4
293.15 K, x2 = 0.753 | 983.6 ± 0.6 | 8.79 ± 4
298.15 K, x2 = 0.081 | 1112.4 ± 1.5 | 268.93 ± 31
298.15 K, x2 = 0.161 | 1107.5 ± 1.4 | 194.74 ± 18
298.15 K, x2 = 0.315 | 1088.3 ± 1.2 | 78.63 ± 4.7
298.15 K, x2 = 0.511 | 1054.2 ± 0.9 | 28.87 ± 4
298.15 K, x2 = 0.612 | 1028.4 ± 0.8 | 15.35 ± 4
298.15 K, x2 = 0.753 | 979.7 ± 0.6 | 7.53
303.15 K, x2 = 0.081 | 1108.9 ± 1.5 | 203.35 ± 19
303.15 K, x2 = 0.161 | 1104 ± 1.4 | 150.36 ± 11
303.15 K, x2 = 0.315 | 1084.8 ± 1.2 | 63.33 ± 4.2
303.15 K, x2 = 0.511 | 1050.6 ± 0.9 | 23.94 ± 4
303.15 K, x2 = 0.612 | 1024.7 ± 0.7 | 12.98 ± 4
303.15 K, x2 = 0.753 | 975.7 ± 0.6 | 6.51
308.15 K, x2 = 0.081 | 1105.5 ± 1.5 | 156.29 ± 12
308.15 K, x2 = 0.161 | 1100.7 ± 1.4 | 117.36 ± 7.5
308.15 K, x2 = 0.315 | 1081.3 ± 1.2 | 51.59 ± 4
308.15 K, x2 = 0.511 | 1046.9 ± 0.9 | 20.13 ± 4
308.15 K, x2 = 0.612 | 1020.9 ± 0.7 | 11.16 ± 4
308.15 K, x2 = 0.753 | 971.8 ± 0.6 | 5.66
313.15 K, x2 = 0.081 | 1102.2 ± 1.5 | 123.27 ± 8.1
313.15 K, x2 = 0.161 | 1097.3 ± 1.4 | 93.2 ± 5.5
313.15 K, x2 = 0.315 | 1077.8 ± 1.2 | 42.48 ± 4.1
313.15 K, x2 = 0.511 | 1043.2 ± 0.9 | 17.09 ± 4
313.15 K, x2 = 0.612 | 1017.2 ± 0.7 | 9.61 ± 4
313.15 K, x2 = 0.753 | 968 ± 0.6 | 4.96
318.15 K, x2 = 0.081 | 1098.8 ± 1.5 | 97.69 ± 5.8
318.15 K, x2 = 0.161 | 1093.9 ± 1.4 | 75.37 ± 4.5
318.15 K, x2 = 0.315 | 1074.3 ± 1.1 | 35.84 ± 4
318.15 K, x2 = 0.511 | 1039.3 ± 0.9 | 14.67 ± 4
318.15 K, x2 = 0.612 | 1013.4 ± 0.7 | 8.39 ± 4
318.15 K, x2 = 0.753 | 964.1 ± 0.7 | 4.38
323.15 K, x2 = 0.081 | 1095.4 ± 1.4 | 79.43 ± 4.7
323.15 K, x2 = 0.161 | 1090.5 ± 1.3 | 61.66 ± 4.2
323.15 K, x2 = 0.315 | 1070.9 ± 1.1 | 30.38 ± 4
323.15 K, x2 = 0.511 | 1034.9 ± 0.8 | 12.72 ± 4
323.15 K, x2 = 0.612 | 1009.7 ± 0.7 | 7.39
323.15 K, x2 = 0.753 | 960.2 ± 0.7 | 3.89
328.15 K, x2 = 0.081 | 1092.1 ± 1.4 | 65.03 ± 4.2
328.15 K, x2 = 0.161 | 1087.1 ± 1.3 | 51.12 ± 4
328.15 K, x2 = 0.315 | 1067.4 ± 1.1 | 26.04 ± 4
328.15 K, x2 = 0.511 | 1030.3 ± 0.8 | 11.1 ± 4
328.15 K, x2 = 0.612 | 1005.9 ± 0.7 | 6.55
328.15 K, x2 = 0.753 | 956.4 ± 0.7 | 3.5
333.15 K, x2 = 0.081 | 1088.7 ± 1.4 | 54.15 ± 4.1
333.15 K, x2 = 0.161 | 1083.7 ± 1.3 | 42.99 ± 4.1
333.15 K, x2 = 0.315 | 1064 ± 1.1 | 22.54 ± 4
333.15 K, x2 = 0.511 | 1028.7 ± 0.8 | 9.77 ± 4
333.15 K, x2 = 0.612 | 1002.2 ± 0.7 | 5.8
333.15 K, x2 = 0.753 | 952.5 ± 0.7 | 3.17
338.15 K, x2 = 0.081 | 1085.4 ± 1.4 | 45.46 ± 4.1
338.15 K, x2 = 0.161 | 1080.3 ± 1.3 | 36.47 ± 4
338.15 K, x2 = 0.315 | 1060.5 ± 1.1 | 19.73 ± 4
338.15 K, x2 = 0.511 | 1025.2 ± 0.8 | 8.65 ± 4
338.15 K, x2 = 0.612 | 998.5 ± 0.7 | 5.18
338.15 K, x2 = 0.753 | 948.6 ± 0.7 | 2.89
343.15 K, x2 = 0.081 | 1082.1 ± 1.4 | 39.03 ± 4.1
343.15 K, x2 = 0.161 | 1077 ± 1.3 | 31.51 ± 4
343.15 K, x2 = 0.315 | 1057.1 ± 1.1 | 17.42 ± 4
343.15 K, x2 = 0.511 | 1021.3 ± 0.8 | 7.74
343.15 K, x2 = 0.612 | 994.7 ± 0.7 | 4.7
343.15 K, x2 = 0.753 | 944.7 ± 0.7 | 2.65
